# Reference: ChEMBL document CHEMBL1135260 (Bioorg Med Chem Lett, 2002)
# Target: T1, Neuropeptide Y receptor type 5 (Homo sapiens, UniProt Q15761)
# T1 sequence (Q15761 whole entry): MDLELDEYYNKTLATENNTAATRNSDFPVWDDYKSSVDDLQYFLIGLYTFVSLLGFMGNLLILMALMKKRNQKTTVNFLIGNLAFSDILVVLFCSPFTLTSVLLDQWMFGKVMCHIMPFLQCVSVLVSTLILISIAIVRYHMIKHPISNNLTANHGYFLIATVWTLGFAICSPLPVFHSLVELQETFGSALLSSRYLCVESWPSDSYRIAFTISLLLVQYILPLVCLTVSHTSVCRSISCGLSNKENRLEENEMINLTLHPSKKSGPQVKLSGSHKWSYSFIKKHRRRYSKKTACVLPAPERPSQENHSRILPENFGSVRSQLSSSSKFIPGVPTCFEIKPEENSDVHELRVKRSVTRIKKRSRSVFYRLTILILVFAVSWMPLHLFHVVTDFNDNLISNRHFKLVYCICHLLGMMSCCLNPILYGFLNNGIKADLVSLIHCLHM
# Test: Concentration that inhibited 50% of binding of 125 I -PYY ligand to human Neuropeptide Y receptor type 5
# Type: single protein
row,Structure (SMILES),IC50 [nM]
1,c1ccc2c(c1)CCCc1[nH]c(-c3c[nH]cn3)nc1-2,570
2,c1ccc(-c2nc3c([nH]2)CCOc2ccccc2-3)cc1,6100
3,c1ccc(-c2nc3c([nH]2)-c2ccccc2CCC3)nc1,110
4,Cc1[nH]c(-c2ccccc2)nc1-c1cccnc1 [FR-79620],427

# Continued, values first:
row,IC50 [nM],Structure (SMILES)
1,110,COc1ccc2c(c1)-c1nc(-c3ccccn3)[nH]c1CCC2
2,6.4,Fc1ccc2c(c1)-c1nc(-c3cccnc3)[nH]c1CCC2
3,52,COc1ccc2c(c1)-c1nc(-c3ccccc3)[nH]c1CC2
